Assay results: patent publication US20130005710A1, “AMINOPYRIDINE DERIVATIVE” (priority 2009, published 2013)

system: rat mixed glial culture; test: Neurogenesis promoting effect in rat mixed glial culture (neuronal differentiation, beta-tubulin III ELISA); type: cell-based; conditions: 1 μM compound + rhIGF-1 100 ng/ml, 3 days; control (only rhIGF-1) = 100%; absorbance 450 nm
Description: The hippocampus and the cerebral cortex were excised from each of 3-day-old SD rats. A cell suspension was prepared therefrom using a neuron dispersion kit (Sumitomo Bakelite Co., Ltd., MB-X9901) and inoculated at concentration of 10^5 cells/well to a 96-well plate coated with type I collagen (AGC Techno Glass Co., Ltd., 4860-010). The cells were cultured in a growth medium (D-MEM/F12 containing 10% FBS and PS) at 37° C. for 4 days under 5% CO2 conditions.
After the culture, the medium was replaced by a differentiation medium (D-MEM/F12 containing PS), and rhIGF-1 (R&D Systems, 291-G1-250, final concentration: 100 ng/ml) and 1 μM compound were added thereto. The cells were further cultured for 3 days. The cultured cells were fixed in 4% paraformaldehyde-PBS (Muto Pure Chemicals Co., Ltd.), subjected to membrane permeation treatment with 0.1% Triton X-100 PBS, and blocked with Block Ace solution (DS Pharma Biomedical Co., Ltd., UK-B80). Anti-neuron-specific class III beta-tubulin Antibody (R&D Systems, MAB1195, clone Tuj-1) was diluted 1000-fold and used as a primary antibody. Anti-Mouse Ig, HRP-Linked F(ab′)2 Fragment Sheep (GE Healthcare, NA9310) was diluted 10000-fold and used as a secondary antibody. A plate washer (BIO-TEK INSTRUMENTS ELX405) was used in washing operation. TMB Microwell Peroxidase Substrate System (Kirkegaard & Perry Laboratories, 50-76-00) was used in color reaction, which was performed for 10 minutes and stopped by addition of 1 M phosphoric acid. Absorbance at 450 nm was measured using a plate reader (Labsystems Multiskan BICHROMATIC).
The rate of increase in the absorbance of the compound-supplemented group (compound+rhIGF-1) relative to that of a compound-unsupplemented group (control, only rhIGF-1) as 100% was determined in terms of % control.

| Structure (SMILES) | Ratio of absorbance of compound-supplemented group to control (%) |
| --- | --- |
| COc1ccc(N2CCOC(c3ccc(C(F)(F)F)cc3)C2)c(-c2ccc(N(C)C)cc2)n1 (single isomer, unassigned) [Example 5, 4-(6-methoxy-3-{2-[4-(trifluoromethyl)phenyl]morpholin-4-yl}pyridin-2-yl)-N,N-dimethylaniline] | 765 |
| COc1ccc(N2CCOC(c3ccc(C(F)(F)F)cc3)C2)c(-c2ccc(N(C)C)cc2)n1 (single isomer, unassigned) [Example 6, 4-(6-methoxy-3-{2-[4-(trifluoromethyl)phenyl]morpholin-4-yl}pyridin-2-yl)-N,N-dimethylaniline] | 134 |

same assay, conditions: Rattus norvegicus, 72 h, 1 μM compound + rhIGF-1 100 ng/ml, 3 days; control (only rhIGF-1) = 100%; absorbance 450 nm; read-out: Ratio of absorbance of compound-supplemented group to control (%)

| Structure (SMILES) | activity at 1 µM [%] |
| --- | --- |
| COc1ccc(N2CCOC(c3cccc(C(F)(F)F)c3)C2)c(-c2ccc(N(C)C)cc2)n1 (stereo not drawn) [Example 2, 4-(6-methoxy-3-{2-[3-(trifluoromethyl)phenyl]morpholin-4-yl}pyridin-2-yl)-N,N-dimethylaniline] | 448 |
| COc1ccc(C2CN(c3ccc(OC)nc3-c3ccc(N(C)C)cc3)CCO2)cc1 (stereo not drawn) [Example 3, 4-{6-methoxy-3-[2-(4-methoxyphenyl)morpholin-4-yl]pyridin-2-yl}-N,N-dimethylaniline] | 303 |
| COc1ccc(N2CCOC(Cc3cccc(C(F)(F)F)c3)C2)c(-c2ccc(N(C)C)cc2)n1 (stereo not drawn) [Example 9, 4-(6-methoxy-3-{2-[3-(trifluoromethyl)benzyl]morpholin-4-yl}pyridin-2-yl)-N,N-dimethylaniline] | 321 |
| CCOC(=O)N1CCN(c2ccc(OC)nc2-c2ccc(N(C)C)cc2)CC1c1ccc(OC)cc1 (stereo not drawn) [Example 13, Ethyl 4-{2-[4-(dimethylamino)phenyl]-6-methoxypyridin-3-yl}-2-(4-methoxyphenyl)piperazine-1-carboxylate] | 285 |
| COc1ccc(C2CN(c3ccc(OC)nc3-c3ccc(N(C)C)cc3)CCN2)cc1 (stereo not drawn) [Example 14, 4-{6-methoxy-3-[3-(4-methoxyphenyl)piperazin-1-yl]pyridin-2-yl}-N,N-dimethylaniline] | 260 |
| COc1ccc(N2CCN(c3ccc(Cl)cc3)CC2)c(-c2ccc(N(C)C)cc2)n1 [Example 24, 4-{3-[4-(4-chlorophenyl)piperazin-1-yl]-6-methoxypyridin-2-yl}-N,N-dimethylaniline] | 462 |
| COc1ccc(N2CCN(c3ccc(OC)c(OC)c3)CC2)c(-c2ccc(N(C)C)cc2)n1 [Example 26, 4-{3-[4-(3,4-dimethoxyphenyl)piperazin-1-yl]-6-methoxypyridin-2-yl}-N,N-dimethylaniline] | 259 |
| COc1ccc(CC2CN(c3ccc(OC)nc3-c3ccc(N(C)C)cc3)CCN2C)cc1 (stereo not drawn) [Example 34, 4-{6-methoxy-3-[3-(4-methoxybenzyl)-4-methylpiperazin-1-yl]pyridin-2-yl}-N,N-dimethylaniline] | 783 |
| COc1ccc(N2CCN(c3ccc(OC)nc3-c3ccc(OC(F)(F)F)cc3)CC2)cc1 [Example 49, 1-(4-methoxyphenyl)-4-{6-methoxy-2-[4-(trifluoromethoxy)phenyl]pyridin-3-yl}piperazine] | 887 |
| COc1ccc(-c2nc(OC)ccc2N2CCN(c3ccc(OC)cc3)CC2)cc1 [Example 50, 1-[6-methoxy-2-(4-methoxyphenyl)pyridin-3-yl]-4-(4-methoxyphenyl)piperazine] | 546 |
| COc1ccc(N2CCN(c3ccc(OC)nc3-c3ccc(C(C)C)cc3)CC2)cc1 [Example 51, 1-{6-methoxy-2-[4-(1-methylethyl)phenyl]pyridin-3-yl}-4-(4-methoxyphenyl)piperazine] | 856 |
| COc1ccc(N2CCN(c3ccc(OC)nc3-c3ccc(OC(C)C)cc3)CC2)cc1 [Example 52, 1-{6-methoxy-2-[4-(1-methylethoxy)phenyl]pyridin-3-yl}-4-(4-methoxyphenyl)piperazine] | 731 |
| COc1ccc(N2CCN(c3ccc(OC)nc3-c3ccc4c(c3)CC(C)(C)O4)CC2)cc1 [Example 60, 1-[2-(2,2-dimethyl-2,3-dihydro-1-benzofuran-5-yl)-6-methoxypyridin-3-yl]-4-(4-methoxyphenyl)piperazine] | 218 |
| CCOc1ccc(-c2nc(OC)ccc2N2CCN(c3ccc(OC)cc3)CC2)cc1F [Example 62, 1-[2-(4-ethoxy-3-fluorophenyl)-6-methoxypyridin-3-yl]-4-(4-methoxyphenyl)piperazine] | 439 |
| COc1ccc(C2(O)CCN(c3ccc(OC)nc3-c3ccc(OC(F)(F)F)cc3)CC2)cc1 [Example 75, 4-(4-methoxyphenyl)-1-{6-methoxy-2-[4-(trifluoromethoxy)phenyl]pyridin-3-yl}piperidin-4-ol] | 249 |
| COc1ccc(N2CCCN(c3ccc(OC)nc3-c3ccc(N(C)C)cc3)CC2)cc1 [Example 85, 4-{6-methoxy-3-[4-(4-methoxyphenyl)-1,4-diazepan-1-yl]pyridin-2-yl}-N,N-dimethylaniline] | 385 |
| COc1ccc(N2CCCN(c3ccc(OC)nc3-c3ccc(N(C)C)cc3)CC2)c(F)c1 [Example 87, 4-{3-[4-(2-fluoro-4-methoxyphenyl)-1,4-diazepan-1-yl]-6-methoxypyridin-2-yl}-N,N-dimethylaniline] | 224 |
| COc1ccc(N2CCCN(c3ccc(OC)c(OC)c3)CC2)c(-c2ccc(N(C)C)cc2)n1 [Example 89, 4-{3-[4-(3,4-dimethoxyphenyl)-1,4-diazepan-1-yl]-6-methoxypyridin-2-yl}-N,N-dimethylaniline] | 379 |
| COc1ccc(N2CCN(c3ccc(OC)nc3-c3ccc(N(C)C)cc3)CCC2=O)cc1 [Example 92, 1-{2-[4-(dimethylamino)phenyl]-6-methoxypyridin-3-yl}-4-(4-methoxyphenyl)-1,4-diazepan-5-one] | 449 |
| COc1ccc(C2CCN(c3ccc(OC)nc3-c3ccc(N(C)C)cc3)CCN2C)cc1 (stereo not drawn) [Example 98, 4-{6-methoxy-3-[5-(4-methoxyphenyl)-4-methyl-1,4-diazepan-1-yl]pyridin-2-yl}-N,N-dimethylaniline] | 397 |
| CCOc1ccc(-c2nc(OC)ccc2N2CCC(c3ccc(OC)cc3)N(CC)CC2)cc1 (stereo not drawn) [Example 108, 1-[2-(4-ethoxyphenyl)-6-methoxypyridin-3-yl]-4-ethyl-5-(4-methoxyphenyl)-1,4-diazepane] | 773 |
| CCOc1ccc(-c2nc(OC)ccc2N2CCN(c3ccc(OC)cc3)CC2)c(F)c1 [Example 113, 1-[2-(4-ethoxy-2-fluorophenyl)-6-methoxypyridin-3-yl]-4-(4-methoxyphenyl)piperazine] | 717 |
| COc1ccc(N2CCN(c3ccc(OC)nc3-c3ccc(N(C)C)cc3)CC(C)C2=O)cc1 (stereo not drawn) [Example 118, 1-{2-[4-(dimethylamino)phenyl]-6-methoxypyridin-3-yl}-4-(4-methoxyphenyl)-6-methyl-1,4-diazepan-5-one] | 528 |
| COc1ccc(N2CCN(c3ccc(OC)nc3-c3ccc(N(C)C)cc3)CC(C)(C)C2)cc1 [Example 119, 4-{6-methoxy-3-[4-(4-methoxyphenyl)-6,6-dimethyl-1,4-diazepan-1-yl]pyridin-2-yl}-N,N-dimethylaniline] | 760 |
| COc1ccc(N2CCN(c3ccc(OC)nc3-c3ccc(N(C)C)cc3)CCC2C)cc1 (stereo not drawn) [Example 134, 4-{6-methoxy-3-[4-(4-methoxyphenyl)-5-methyl-1,4-diazepan-1-yl]pyridin-2-yl}-N,N-dimethylaniline] | 630 |
